{"source": "patent US12297192B2", "about": "“Crystal form of pyrimidine sulfonamide compound and preparation method therefor” (WUXI BIOCITY BIOPHARMACEUTICS CO., LTD., priority 2019, dated 2025)", "key": {"[1]": {"molecular_target": "T1, bile salt export pump (BSEP) (Homo sapiens, UniProt O95342)", "T1 construct": "purchased Solvo Biotechnology SB-BSEP-Hi5-VT; host or cells: Hi5 insect cells (read from the product name), membrane vesicles", "T1 sequence (O95342 whole entry)": "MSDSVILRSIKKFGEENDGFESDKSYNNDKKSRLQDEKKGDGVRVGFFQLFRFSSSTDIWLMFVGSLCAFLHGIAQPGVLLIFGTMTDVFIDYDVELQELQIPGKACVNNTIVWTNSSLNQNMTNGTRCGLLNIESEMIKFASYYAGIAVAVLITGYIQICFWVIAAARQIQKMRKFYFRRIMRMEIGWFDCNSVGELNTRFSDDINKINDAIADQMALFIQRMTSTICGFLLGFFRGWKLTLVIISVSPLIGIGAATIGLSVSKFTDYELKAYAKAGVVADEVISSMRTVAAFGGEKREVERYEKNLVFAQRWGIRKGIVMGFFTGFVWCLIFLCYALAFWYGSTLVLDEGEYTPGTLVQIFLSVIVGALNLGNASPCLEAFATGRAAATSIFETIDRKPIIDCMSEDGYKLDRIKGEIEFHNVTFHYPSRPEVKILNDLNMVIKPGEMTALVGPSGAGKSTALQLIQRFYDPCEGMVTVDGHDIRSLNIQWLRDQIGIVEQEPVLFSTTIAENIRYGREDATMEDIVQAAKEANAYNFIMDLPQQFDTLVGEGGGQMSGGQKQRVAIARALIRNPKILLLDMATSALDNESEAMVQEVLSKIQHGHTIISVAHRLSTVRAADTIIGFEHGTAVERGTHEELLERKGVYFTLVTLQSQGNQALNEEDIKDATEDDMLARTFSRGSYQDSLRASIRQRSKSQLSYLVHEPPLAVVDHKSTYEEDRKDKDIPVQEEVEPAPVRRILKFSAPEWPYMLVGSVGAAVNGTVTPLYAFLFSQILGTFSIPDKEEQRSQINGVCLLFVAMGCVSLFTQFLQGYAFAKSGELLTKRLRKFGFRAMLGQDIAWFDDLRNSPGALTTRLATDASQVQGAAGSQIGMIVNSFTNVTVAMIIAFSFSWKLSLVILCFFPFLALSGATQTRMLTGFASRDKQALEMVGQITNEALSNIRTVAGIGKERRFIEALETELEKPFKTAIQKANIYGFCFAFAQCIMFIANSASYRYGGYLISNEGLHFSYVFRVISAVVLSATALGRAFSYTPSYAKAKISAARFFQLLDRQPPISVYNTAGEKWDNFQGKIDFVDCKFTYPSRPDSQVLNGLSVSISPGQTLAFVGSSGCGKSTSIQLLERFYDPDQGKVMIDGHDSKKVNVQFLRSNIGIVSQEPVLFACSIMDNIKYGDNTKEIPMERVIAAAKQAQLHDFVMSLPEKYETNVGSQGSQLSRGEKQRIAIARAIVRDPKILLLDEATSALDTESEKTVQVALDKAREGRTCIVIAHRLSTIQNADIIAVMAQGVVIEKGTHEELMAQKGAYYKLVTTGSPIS", "experiment": "Inhibition test on bile salt export pump (BSEP), taurocholic acid uptake in BSEP-Hi5-VT vesicles", "type": "in vitro ADME", "procedure": "Compounds were diluted to 100 mM with DMSO; then subjected to a serial dilution of 3-fold for eleven dilutions. The minimum concentration was 0.169 μM. • 2. […] The minimum concentration was 19.5 μM. Experimental Protocol: • 1. ECHO was used to transfer 0.3 μl of DMSO solution of the compounds or diluted DMSO to the corresponding wells of the compounds plate, respectively. • 2. 14.7 μl of ATP Buffer was added into the corresponding wells of the compounds and the zero percent effect (ZPE), respectively. • 3. 14.7 μl of AMP Buffer was added into the corresponding wells of the hundred percent effect (HPE). • 4. The plate was shaken for 10 minutes at 25° C. • 5. 15 μl of BSEP-Hi5-VT Vesicle solution was added to each well separately and the plate was shaken for a further 40 minutes at 25° C. • 6. 5 μl of 0.5 M Ethylenediaminetetraacetic acid (EDTA) solution was immediately added to each well, followed by 65 μl of Buffer B. All reactions were complete. • 7. After the reactions were complete, 95 μl of liquid was transferred from the compounds plate to the filter plate using apparatus. • 8. The liquid receiving plate was placed under the filter plate. Then the liquid was removed using a centrifuge. The liquid on the receiving plate was discarded. • 9. 90 μl of Buffer B was added to the filter plate. The liquid receiving plate was placed under the filter plate. Then the liquid was removed using a centrifuge. The liquid on the receiving plate was discarded. The filter plate was washed three times in total. • 10. The filter plate was left to dry overnight. • 11. On the next day, 80 μl of methanol/water (80/20, v/v) solution was added to the filter plate. • 12. The plate was vibrated for 15 minutes after applying the film to the filter plate. • 13. […] Taurocholic acid in the receiving plate was determined using LC/MS/MS.\nSeveral concentrations were tested in each experiment and the data was analyzed using Prism to produce a concentration-response curve to calculate the IC50 values of the compounds."}, "[2]": {"tested_on": "pulmonary hypertension in SD rats induced by monocrotaline (MCT)", "experiment": "In vivo pharmacodynamic evaluation, monocrotaline (MCT)-induced pulmonary hypertension model", "conditions": "for 21-day weight change rate / PCNA positivity rate / Percentage of middle pulmonary artery intima-media thickness / Right ventricular ejection fraction / Right ventricular hypertrophy index / Right ventricular systolic pressure / Right ventricular wall thickness: 21 days, Mean ± SEM, n = 12", "from_the_text": "The animal model of pulmonary hypertension in SD rats induced by monocrotaline (MCT) was used in this study to examine the pharmacological effects of the test compound on a rat model of pulmonary hypertension.\n• Species: Rat • Strain: Sprague-Dawley • Age at arrival at animal house: 5 weeks • Gender: Male • Animal weight at the start of the experiment: 200-260 g • Number: 88 (81 for pharmacodynamic (PD) and pharmacokinetic (PK) tests and 7 for PK-blank matrix) • Supplier: Shanghai SLAC Experimental Animals Co. • Certificate of the animals: 20170005008695 Other Reagent Information\nSolutions of 3 mg/mL Macitentan, 0.1 mg/mL, 0.3 mg/mL and 1 mg/mL the compound of formula (I): an appropriate amount of the compound was weighed and added to a flask with an appropriate volume. PEG 400 of 20% of the total volume was added. Heating and stirring were conducted at 40° C. Tween 80 of 0.5% of the total volume was added. Heating and stirring were conducted at 40° C. Deionized water of 70-75% of the volume was added. Heating and stirring were conducted at 40° C. The pH was adjusted with 5 N NaOH until became clear. Then the pH was reversely adjusted to less than 9 with 6 N HCl and 1 N HCl. The remaining volume was made up with deionized water to achieve the total volume. The final pH was determined (9±0.1).\nAfter the animals had been acclimatized for about 1 week, the animals were randomized into 9 groups according to body weight and the condition of the animal, as shown in Table 15.\nMonitoring Indicators Monitoring Indicators in PD Tests • 1) Daily monitoring of the general condition of the animals and their body weights; • 2) Right ventricular function tests: right ventricular ejection fraction (RVEF), right ventricular wall thickness (RVWT); • 3) Hemodynamic tests: right ventricular systolic pressure (RVSP); • 4) Determination of the right ventricular hypertrophy index (RVHI): RV/(LV+SEP); • 5) […] staining to observe PAWT/IHC staining to observe PCNA as the endpoint detection. Monitoring Indicators in PK Tests • 1) Daily monitoring of the general condition of the animals and their body weights; • 2) Plasma: determination of the pharmacokinetic parameters of the compounds in plasma. Test Method B-Mode Ultrasonic Detection of RVEF, RVWT\nRats were anesthetized with 30 mg/mL pentobarbital sodium (2 mL/kg, ip) and RVEF, RVWT were measured using a small animal ultrasound instrument (VEVO-1100).\nRats were anesthetized with 30 mg/mL sodium pentobarbital (2 mL/kg, ip), fixed onto a surgical plate in supine position, and shaved on the neck. A skin incision was made on the neck. The subcutaneous tissue and muscle layer were bluntly dissected. And the left carotid artery and right jugular vein were stripped. A rat-specific right heart catheter (a PE tube with an external diameter of about 1.5 mm and a small arc-shaped curve at the distal end) connected to a pressure transducer and filled with 0.3% heparin sodium solution was inserted into the right external jugular vein. The arc of the pulmonary artery catheter was kept downwards during the operation and the pulmonary artery catheter was threaded towards the right atrium. The pressure waveform was used to judge whether it had reached the heart. The catheter was deflected towards the left and pushed forward into the right ventricle.\nThe heart was removed. The atria and great vessels were removed. Blotted to dryness with filter paper. The right ventricle was stripped and weighed to calculate RVHI=RV/(LV+SEP).\nAfter euthanasia of the rats, the middle lobe of the right lung was removed, perfused using saline and placed in 4% paraformaldehyde for fixation for the purpose of pathological examination.\nAll data was entered into an Excel document and expressed as mean (Mean)±standard error of mean (SEM). One-way ANOVA with Dunnett's t test was used to analyze and compare the data of each group. Differences between two groups were compared using the unpaired two-tailed t-test method."}}, "note": "pIC50: −log10 of the molar value."}
{"smiles": "CCCNS(=O)(=O)Nc1ncnc(OCCOc2ncc(Br)cn2)c1-c1ccc(Br)cc1", "note": "[Macitentan, reference compound]", "values": [{"measurement": "Inhibitory effect on bile salt export pump (in words)", "setting": "[1]", "value": "strong inhibitory effect"}, {"measurement": "pIC50", "setting": "[1]; taurocholic acid substrate, BSEP-Hi5-VT vesicles", "value": 6.33}, {"measurement": "21-day weight change rate", "setting": "[2]; 30 mg/kg gavage once a day", "value": "45.75 ± 2.14", "unit": "%"}, {"measurement": "PCNA positivity rate", "setting": "[2]; 30 mg/kg gavage once a day", "value": "4.43 ± 0.42", "unit": "%"}, {"measurement": "Percentage of middle pulmonary artery intima-media thickness", "setting": "[2]; 30 mg/kg gavage once a day", "value": "46.56 ± 1.07", "unit": "%"}, {"measurement": "Right ventricular ejection fraction", "setting": "[2]; 30 mg/kg gavage once a day", "value": "58.87 ± 1.71", "unit": "%"}, {"measurement": "Right ventricular hypertrophy index", "setting": "[2]; 30 mg/kg gavage once a day", "value": "0.36 ± 0.03"}, {"measurement": "Right ventricular systolic pressure", "setting": "[2]; 30 mg/kg gavage once a day", "value": "38.71 ± 3.52", "unit": "mmHg"}, {"measurement": "Right ventricular wall thickness", "setting": "[2]; 30 mg/kg gavage once a day", "value": "1.13 ± 0.04", "unit": "mm"}]}
{"smiles": "COCCNS(=O)(=O)Nc1ncnc(OCCOc2ncc(Br)cn2)c1-c1ccc2c(c1)OCO2", "note": "[Compound of formula (I)]", "values": [{"measurement": "Inhibitory effect on bile salt export pump (in words)", "setting": "[1]", "value": "extremely weak inhibitory effect"}, {"measurement": "21-day weight change rate", "setting": "[2]; 1 mg/kg PO/QD", "value": "43.33 ± 1.56", "unit": "%"}, {"measurement": "PCNA positivity rate", "setting": "[2]; 1 mg/kg PO/QD", "value": "3.6 ± 0.69", "unit": "%"}, {"measurement": "Percentage of middle pulmonary artery intima-media thickness", "setting": "[2]; 1 mg/kg PO/QD", "value": "40.44 ± 1.13", "unit": "%"}, {"measurement": "Right ventricular ejection fraction", "setting": "[2]; 1 mg/kg PO/QD", "value": "58.48 ± 2.11", "unit": "%"}, {"measurement": "Right ventricular hypertrophy index", "setting": "[2]; 1 mg/kg PO/QD", "value": "0.40 ± 0.01"}, {"measurement": "Right ventricular systolic pressure", "setting": "[2]; 1 mg/kg PO/QD", "value": "40.72 ± 3.38", "unit": "mmHg"}, {"measurement": "Right ventricular wall thickness", "setting": "[2]; 1 mg/kg PO/QD", "value": "1.16 ± 0.05", "unit": "mm"}, {"measurement": "21-day weight change rate", "setting": "[2]; 3 mg/kg PO/QD", "value": "41.23 ± 3.47", "unit": "%"}, {"measurement": "PCNA positivity rate", "setting": "[2]; 3 mg/kg PO/QD", "value": "3.56 ± 0.66", "unit": "%"}, {"measurement": "Percentage of middle pulmonary artery intima-media thickness", "setting": "[2]; 3 mg/kg PO/QD", "value": "35.44 ± 1.55", "unit": "%"}, {"measurement": "Right ventricular ejection fraction", "setting": "[2]; 3 mg/kg PO/QD", "value": "58 ± 1.80", "unit": "%"}, {"measurement": "Right ventricular hypertrophy index", "setting": "[2]; 3 mg/kg PO/QD", "value": "0.38 ± 0.03"}, {"measurement": "Right ventricular systolic pressure", "setting": "[2]; 3 mg/kg PO/QD", "value": "36.70 ± 3.81", "unit": "mmHg"}, {"measurement": "Right ventricular wall thickness", "setting": "[2]; 3 mg/kg PO/QD", "value": "1.11 ± 0.05", "unit": "mm"}, {"measurement": "21-day weight change rate", "setting": "[2]; 10 mg/kg PO/QD", "value": "42.04 ± 3.07", "unit": "%"}, {"measurement": "PCNA positivity rate", "setting": "[2]; 10 mg/kg PO/QD", "value": "2.85 ± 0.65", "unit": "%"}, {"measurement": "Percentage of middle pulmonary artery intima-media thickness", "setting": "[2]; 10 mg/kg PO/QD", "value": "40.11 ± 1.07", "unit": "%"}, {"measurement": "Right ventricular ejection fraction", "setting": "[2]; 10 mg/kg PO/QD", "value": "59.86 ± 2.29", "unit": "%"}, {"measurement": "Right ventricular hypertrophy index", "setting": "[2]; 10 mg/kg PO/QD", "value": "0.36 ± 0.02"}, {"measurement": "Right ventricular systolic pressure", "setting": "[2]; 10 mg/kg PO/QD", "value": "37.82 ± 3.10", "unit": "mmHg"}, {"measurement": "Right ventricular wall thickness", "setting": "[2]; 10 mg/kg PO/QD", "value": "1.10 ± 0.05", "unit": "mm"}, {"measurement": "Indicators of pulmonary hypertension and right ventricular function (in words)", "setting": "[2]; doses of 1, 3 and 10 mg/kg", "value": "significantly improved"}]}
